# Experimental data as given in US11613552B2, “Pharmaceutical agents, compositions, and methods relating thereto” (Alltech, Inc., priority 2017, dated 2023).
# What was measured:
# H4IIE cells = experiment: Cell viability (CellTiter96 AQueous One) in H4IIE cells; type: cell-based, rat; conditions: tested doses
# Procedure: (§1) After the above treatments, 50 μl of culture media were collected, and subjected to glucose analysis using Molecular Probes Amplex Red glucose assay kit (Cat #A22189) according to the manufacturer's protocol. Cell numbers or viability in the culture plate after the above compound treatments were determined using Promega's CellTiter96® AQueous One Solution Cell Proliferation Assay kits, according to the manufacturer's protocol and instructions. In brief, after removing 50 μl of culture media for glucose assay, cells were incubated with AQueous One solution (25 μl stock solution and 50 μl prewarmed PBS/per well) at 37° C. for 1 hour, and the absorbance of OD490 nm in each sample was determined by the Bio-Tek microplate reader. Cell viability in culture wells were determined by the subtraction of OD490 nm in cultured cells with the OD490 nm in plain culture media (without seeding of cells). Glucose production in the culture cells were obtained by normalizing the glucose concentration in culture media by cell viability in each well. At least 3 samples per each treatment were examined for the above analysis. Data are presented as Mean±SEM of those samples. Experiments were repeated at least twice.
# HepG2 cells = experiment: Cell viability (CellTiter96 AQueous One) in HepG2 cells; type: cell-based, human; conditions: all tested doses, 48 hr
# Procedure: as §1
# STZ-induced T1D mice = experiment: Blood glucose in STZ-induced type 1 diabetic mice after acute treatment; type: in vivo, mouse; conditions: 5.4 mg/kg ip, fasted
# Procedure: Five-week-old C57/BL6 male mice were intraperitoneally injected with streptozotocin (STZ, 55 mg/kg mouse body weigh) daily for 5 days, and then housed in the vivarium for another 14 days for recovery. Blood glucose levels of these mice were measured using a glucometer. Those animals with a blood glucose level higher than 500 mg/dL were considered to be type I diabetic (T1D). These T1D mice with unfasted blood glucose levels between 500-550 mg/dL were fasted overnight and injected intraperitoneally with Compound #43 at a dose of 5.4 mg/kg body weight or physiological saline containing 2% DMSO (Compound #43 stock solvent). At 1, 2 and 3 hours post-injection, blood glucose levels in these mice were measured using the glucometer.
# Pdk1/Akt/Foxo1 = experiment: Western blot of Pdk1/Akt/Foxo1 in skeletal muscles of Lepr^db/db mice; type: in vivo, mouse; conditions: 0.136 mg/kg ip daily, 52 days (FIG. 18)
# Procedure: Male Lepr^db/db mice (C57BL/6J strain, purchased from The Jackson Laboratory) at 38 days of age were intraperitoneally injected daily with physiological saline ([…]) containing 0.2% DMSO or 0.136 mg of Compound #43 per kilogram body weight, diluted in the sterile physiological saline) for 52 days. After the treatment, gastrocnemius skeletal muscle samples were collected and stored at −80° C.
# Frozen skeletal muscles were minced in sterile ice-old PBS containing complete proteinase and phosphatase inhibitors (Thermo-Fisher Scientific, Waltham, Mass.) and subjected to homogenization using a tissue homogenizer (Thermo-Fisher Scientific, Waltham, Mass.). These tissue homogenates were diluted in Themo-Fisher's RIPA buffer (1 part homogenate/2 part of RIPA buffer) containing complete proteinase/phosphatase inhibitors to extract the proteins. Proteins in the homogenates were extracted in RIPA buffer at 4° C. overnight. These overnight-extracted protein/tissue lysates were centrifuged at 12000×g for 30 min at 4° C., and the protein levels in the supernatant of these tissue lysates were determined using the Pierce Micro-BCA protein assay kit (Thermo Scientific-Piece Biotechnology, Rockford, Ill.) according to the manufacturer's protocol.
# One hundred micrograms of skeletal muscle proteins were subjected to SDS-PAGE gel separation and then transferred to PVDF membranes, as described previously (Reddy et al. 2008 Science). Membranes were blocked in a phosphate-buffered saline (PBS) containing 5% (w/v) of bovine serum albumin (Sigma, St. Louis, Mo.) and incubated with specific primary antibodies followed by the incubation with HRP-conjugated anti-mouse or anti-rabbit secondary antibodies (1:5000 dilution, Cell Signaling Inc.). All primary antibodies were purchased from Cell Signaling Inc, except the antibodies against β-tubulin (LI-COR bioscience). Positive signals on the membrane blots were detected using Amersham's enhanced chemiluminescence Western Blotting Prime Detection reagents (GE Healthcare Lifescience, Pittsburgh, Pa.). Images of these luminescence signals on the membrane blots were captured using the LI-COR Odyssey Fc Image system (Lincoln, Nebr.). The same membrane blot was stripped and re-blotted with another antibody as described in the GE WB ECL-prime-detection protocol (GE healthcare Lifescience, Pittsburgh, Pa.). Protein band densities in the Western blots were determined using the NIH ImageJ software and then normalized by β-tubulin level in each sample. Data are presented as mean±SEM of 5 animal samples.
structure (smiles),measurement,setting,value
"C[Se]C[C@H]1O[C@@H](n2cnc3c(N)ncnc32)C(OC(C)=O)C1OC(C)=O (some centres unmarked) [Compound #43, Adenosine, 5′-Se-methyl-5′-selino-, 2′,3′-diacetate]",toxic effect on cell viability,H4IIE cells,No toxic effect
same,cell viability,HepG2 cells,no significant decrease of cell viability
same,blood glucose levels,STZ-induced T1D mice; 2 and 3 hours (FIG. 28),significant decrease in blood glucose levels
same,blood glucose levels,STZ-induced T1D mice; 1 hour (FIG. 28),trend of decreased blood glucose levels
same,pAkt protein levels in skeletal muscle,Pdk1/Akt/Foxo1,significantly elevated
same,pFoxo1 protein levels in skeletal muscle,Pdk1/Akt/Foxo1,significantly elevated
same,total Akt and Foxo1 protein levels in skeletal muscle,Pdk1/Akt/Foxo1,no significant change
same,pPdk1 protein levels in skeletal muscle,Pdk1/Akt/Foxo1; P=0.11,approached statistical significance
